US4029688A, “Carbamic pesticidal compositions” (priority 1974, dated 1977)
Converted amounts (≈) assume the structure as drawn.

Legend:
[1] = test system: Mexican bean beetle (Epilachna varivestis, Muls.); assay: Mexican Bean Beetle Leaf Spray Test; type: in vivo; conditions: Epilachna varivestis; Table II; read-out: Beetle LD50
Procedure: (§1) Suspensions of the test compounds were prepared by dissolving one gram of compound in 50 milliliters of acetone in which had been dissolved 0.1 gram (10 percent of the weight of compound) of an alkylphenoxy polyethoxyethanol surfactant, as an emulsifying or dispersing agent. The resulting solution was mixed into 150 milliliters of water to give roughly 200 milliliters of a suspension containing the compound in finely divided form. The thus-prepared stock suspension contained 0.5 percent by weight of compound. The test concentrations in parts per million by weight employed in the tests described hereinbelow were obtained by appropriate dilutions of the stock suspension with water. The test procedures were as follows:
Fourth instar larvae of the Mexican bean beetle (Epilachna varivestis, Muls.), reared on Tendergreen bean plants at a temperature of 80°±5° F. and 50±5 percent relative humidity, were the test insects.
The test compounds were formulated by diluting the stock suspension with water to give a suspension containing 500 parts of test compound per million parts of final formulation. Potted Tendergreen bean plants of standard height and age were placed on a revolving turntable and sprayed with 100-110 milliliters of test compound formulation by use of a DeVilbiss spray gun set at 10 psig air pressure. This application, which lasted 25 seconds, was sufficient to wet plants to run-off. As a control, 100-110 milliliters of a water-acetone-emulsifier solution containing no test compound were also sprayed on infested plants. When dry, the paired leaves were separated and each was placed in a 9 centimeter Petri dish lined with moistened filter paper. Five randomly selected larvae were introduced into each dish, and the dishes were closed. The closed dishes were labeled and held at a temperature of 80°±5° F. for three days. Although the larvae could easily consume the leaf within 24 to 48 hours, no more food was added. Larvae which were unable to move the length of the body, even upon stimulation, were considered dead.
(§2) In the tests described above, the pesticidal activity of the compounds against aphid, mite, Southern Armyworm, Bean Beetle, house fly and nematode was rated as follows:
(§3) Comparison tests were conducted to assess the biological and chemical properties of certain representative species of the claimed invention in relation to their corresponding N-methyl carbamate compositions. The test procedures described above were employed in these experiments in order to determine the LD50 (number of parts per million of active ingredients required to achieve fifty percent mortality of the insects tested) for each of the compositions tested. In the case of the aphid and mite tests a side by side comparison was made of the N-methyl carbamate composition versus the corresponding perhalomethylsulfenyl derivative.

[2] = test system: house flies (Musca domestica, L.); assay: Fly Bait Test; type: in vivo; conditions: Musca domestica; Table II; read-out: Housefly LD50
Procedure: as §1
Four to six day old adult house flies (Musca domestica, L.), reared according to the specifications of the Chemical Specialties Manufacturing Association (Blue Book, McNair-Dorland Co., N. Y. 1954; pages 243-244, 261) under controlled conditions of 80°±5° F. and 50±5 percent relative humidity, were the test insects. The flies were immobilized by anesthetizing with carbon dioxide and twenty-five immobilized individuals, males and females, were transferred to a cage consisting of a standard food strainer about five inches in diameter which was inverted over a wrapping-paper-covered surface. The test compounds were formulated by diluting the stock suspension with a 10 percent (by weight) sugar solution to give a suspension containing 500 parts of test compound per million parts of final formulation, by weight. Ten milliliters of the test formulation were added to a souffle cup containing a one-inch square of an absorbent cotton pad. This bait cup was introduced and centered on the blotting paper under the food strainer prior to admitting the anesthetized flies. The caged flies were allowed to feed on the bait for twenty-four hours, at a temperature of 80°±5° F. and the relative humidity of 50±5 percent.
as §2, §3

[3] = test system: two-spotted mite (Tetranychus urticae Koch); assay: Mite Foliage Spray Test; type: in vivo; conditions: Tetranychus urticae, foliar; Table II, side by side comparison; read-out: Mites Spray LD50
Procedure: as §1
Adults and numphal stages of the two-spotted mite (Tetranychus urticae Koch), reared on Tendergreen bean plants at 80±5 percent relative humidity, were the test organisms. Infested leaves from a stock culture were placed on the primary leaves of two bean plants six to eight inches in height, growing in a 21/2 inch clay pot. 150 -200 Mites, a sufficient number for testing, transferred from the excised leaves to the fresh plants in a period of twenty-four hours. Following the twenty-four hour transfer period, the excised leaves were removed from the infested plants. The test compounds were formulated by diluting the stock suspension with water to give a suspension containing 500 parts of test compound per million parts of final formulation. The potted plants (one pot per compound) were placed on a revolving turntable and sprayed with 100-110 milliliters of test compound formulation by use of a DeVilbiss spray gun set at 40 psig. air pressure. This application, which lasted 25 seconds, was sufficient to wet the plants to run-off. As a control, 100-110 milliliters of a water solution containing acetone and emulsifier in the same concentrations as the test compound formulation, but containing no test compound, were also sprayed on infested plants. The sprayed plants were held at 80±5 percent relative humidity for six days, after which a mortality count of motile forms was made. Microscopic examination for motile forms was made on the leaves of the test plants. Any individual which was capable of locomotion upon prodding was considered living.
as §2, §3

[4] = test system: bean aphid (Aphis fabae Scop.); assay: Bean Aphid Foliage Spray Test; type: in vivo; conditions: Aphis fabae, foliar; Table II, side by side comparison; read-out: Aphids LD50
Procedure: as §1
Adults and nymphal stages of the bean aphid (Aphis fabae Scop.) reared on potted dwarf nasturtium plants at 65°-70° F. and 50-70 percent relative humidity, constituted the test insects. For testing purposes, the number of aphids per pot was standardized to 100-150 by trimming plants containing excess aphids.
The test compounds were formulated by diluting the stock suspension with water to give a suspension containing 500 parts of test compound per million parts of final formulation.
The potted plants (one pot per compound tested) infested with 100-150 aphids, were placed on a revolving turntable and sprayed with 100-110 milliliters of test compound formulation by use of a DeVilbiss spray gun set at 40 psig. air pressure. This application, which lasted 25 seconds, was sufficient to wet the plants to run-off. As a control, 100-110 milliliters of a water-acetone-emulsifier solution containing no test compound were also sprayed on infested plants. After spraying, the pots were placed on their sides on a sheet of white standard mimeograph paper which had been previously ruled to facilitate counting. Temperature and humidity in the test room during the 24 hour holding period were 65°-70° F. and 50-70 percent, respectively. Aphids which fell onto the paper and were unable to remain standing after being uprighted were considered dead. Aphids remaining on the plants were observed closely for movement and those which were unable to move the length of the body upon stimulation by prodding were considered dead. Percent mortality was recorded for various concentration levels.
as §2, §3

[5] = Peroral toxicity to mammals (rat); conditions: in vivo, po, Table II
Procedure: Certain of these compositions were also evaluated to determine their peroral toxicity to mammals. The animal selected for this experiment was the rat. The test results obtained are expressed in terms of the number of milligrams of composition per kilogram of weight of the animal required to achieve a mortality rate of 50 percent (LD50).

[6] = test system: southern armyworm (Prodenia eridania, (Cram.)); assay: Southern Armyworm Leaf Spray Test; type: in vivo; conditions: Spodoptera eridania; Table II; read-out: Armyworm LD50
Procedure: as §1
Larvae of the southern armyworm (Prodenia eridania, (Cram.)), reared on Tendergreen bean plants at a temperature of 80°±5° F. and a relative humidity of 50±5 percent, constituted the test insects.
The test compounds were formulated by diluting the stock suspension with water to give a suspension containing 500 parts of test compound per million parts of final formulation. Potted Tendergreen bean plants of standard height and age were placed on a revolving turntable and sprayed with 100-110 milliliters of test compound formulation by use of a DeVilbiss spray gun set at 10 psig air pressure. This application, which lasted 25 seconds, was sufficient to wet plants to run-off. As a control, 100-110 milliliters of a water-acetone-emulsifier solution containing no test compound were also sprayed on infested plants. When dry, the paired leaves were separated and each one was placed in a 9 centimeter Petri dish lined with moistened filter paper. Five randomly selected larvae were introduced into each dish and the dishes were closed. The closed dishes were labeled and held at 80-85° F. for three days. Although the larvae could easily consume the whole leaf within twenty-four hours, no more food was added. Larvae which were unable to move the length of the body, even upon stimulation by prodding, were considered dead. Percent mortality was recorded for various concentration levels.
as §2, §3

Chemical stability = type: physicochemical; conditions: Table II

| SMILES | LC50 [1] | LC50 [2] | LC50 [3] | LC50 [4] | LD50 [5] | LC50 [6] | Stability (Chemical stability) |
| --- | --- | --- | --- | --- | --- | --- | --- |
| CNC(=O)ON=CC(C)(C)C#N [drawing 22 R=H, X=CN, reference compound] | 65 µg/mL (≈ 384 µM) | 3 µg/mL (≈ 17.7 µM) | 40 µg/mL (≈ 236 µM) | 12 µg/mL (≈ 70.9 µM) | 9.5 mg/kg | 55 µg/mL (≈ 325 µM) | unstable |
| CNC(=O)ON=CC(C)(C)[N+](=O)[O-] [drawing 22 R=H, X=NO2, reference compound] | 80 µg/mL (≈ 423 µM) | 3 µg/mL (≈ 15.9 µM) | 32 µg/mL (≈ 169 µM) | 6 µg/mL (≈ 31.7 µM) | 4 mg/kg | 55 µg/mL (≈ 291 µM) | unstable |
| CN(SC(F)(F)F)C(=O)ON=CC(C)(C)C#N [drawing 22 R=SCF3, X=CN, 2-Methyl-2-cyanopropionaldehyde O-(N-methyl-N-trifluoromethanesulfenylcarbamoyl)oxime] | 40 µg/mL (≈ 149 µM) | 14 µg/mL (≈ 52 µM) | 90 µg/mL (≈ 334 µM) | 38 µg/mL (≈ 141 µM) | – | 300 µg/mL (≈ 1110 µM) | stable |
| CNC(=O)ON=C(C)SCCC#N [drawing 23 R=H, reference compound] | 25 µg/mL (≈ 124 µM) | 2 µg/mL (≈ 9.94 µM) | 8 µg/mL (≈ 39.8 µM) | 8 µg/mL (≈ 39.8 µM) | 7.7 mg/kg | 5 µg/mL (≈ 24.8 µM) | stable |
